For one series, the system named is male Wistar rats. To be noted: rat, in vivo.
Series [1] deals with Hypercholesterolemic Rats. Also on record: species or system Wistar rats. To be noted: rat, in vivo.

SMILES strings stand for the structures.

Take `CN(C)C(=O)Oc1cccc([N+](C)(C)C)c1` [Neostigmine bromide]: the “Acute toxicity: state of the rats after administration” value with male Wistar rats was “all the rats were dead”. Moreover, in series [1], the LDL-cholesterol is 76.6 ± 10.7 mg % and the Total cholesterol amounted to 131.2 ± 11.8 mg %.

The values are drawn from patent US4661502A (priority 1983, dated 1987).
